target: T1, human TGF-β2 (Homo sapiens, UniProt P61812); experiment: not given; conditions: Biacore; cited from earlier work
T1 sequence (P61812 303-414 limits assumed): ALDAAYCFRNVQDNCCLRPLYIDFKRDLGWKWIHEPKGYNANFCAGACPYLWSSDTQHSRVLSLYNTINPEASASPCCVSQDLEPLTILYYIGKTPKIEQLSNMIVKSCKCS

| Compound | Kd |
| --- | --- |
| XOMA 089: fully human monoclonal antibody that specifically binds and neutralizes TGF-beta 1 and 2 ligands | 67.3 µM |

target: T2, human TGF-β3 (Homo sapiens, UniProt P10600); experiment: not given; conditions: Biacore; cited from earlier work
T2 sequence (P10600 301-412 limits assumed): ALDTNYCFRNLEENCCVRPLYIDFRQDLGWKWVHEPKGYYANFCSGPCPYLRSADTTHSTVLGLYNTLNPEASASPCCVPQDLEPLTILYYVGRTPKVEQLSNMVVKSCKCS

| Compound | Kd |
| --- | --- |
| XOMA 089: fully human monoclonal antibody that specifically binds and neutralizes TGF-beta 1 and 2 ligands | 948 µM |

target: IKZF2 (Helios) (Homo sapiens, UniProt Q96SW2+Q9UKS7); experiment: Prolabel quantification of IKZF2 protein levels in 293GT cells; format: cell-based; conditions: not given
Sequence (Q9UKS7 whole entry, the tested form may be a part): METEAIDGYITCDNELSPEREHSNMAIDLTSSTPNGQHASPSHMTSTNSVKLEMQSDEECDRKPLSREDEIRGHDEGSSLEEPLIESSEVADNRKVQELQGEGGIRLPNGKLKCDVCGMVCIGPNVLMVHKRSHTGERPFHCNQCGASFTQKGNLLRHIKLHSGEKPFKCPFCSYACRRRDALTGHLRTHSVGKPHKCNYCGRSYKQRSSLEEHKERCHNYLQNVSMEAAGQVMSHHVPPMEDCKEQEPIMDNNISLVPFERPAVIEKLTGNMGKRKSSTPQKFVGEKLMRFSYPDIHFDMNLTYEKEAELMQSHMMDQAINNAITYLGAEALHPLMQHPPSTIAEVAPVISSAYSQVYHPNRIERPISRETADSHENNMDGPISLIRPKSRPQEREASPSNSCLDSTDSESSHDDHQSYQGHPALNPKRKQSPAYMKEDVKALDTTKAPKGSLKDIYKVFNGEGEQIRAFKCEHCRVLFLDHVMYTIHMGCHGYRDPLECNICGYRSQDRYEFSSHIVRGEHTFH
Sequence (Q96SW2 whole entry, the tested form may be a part): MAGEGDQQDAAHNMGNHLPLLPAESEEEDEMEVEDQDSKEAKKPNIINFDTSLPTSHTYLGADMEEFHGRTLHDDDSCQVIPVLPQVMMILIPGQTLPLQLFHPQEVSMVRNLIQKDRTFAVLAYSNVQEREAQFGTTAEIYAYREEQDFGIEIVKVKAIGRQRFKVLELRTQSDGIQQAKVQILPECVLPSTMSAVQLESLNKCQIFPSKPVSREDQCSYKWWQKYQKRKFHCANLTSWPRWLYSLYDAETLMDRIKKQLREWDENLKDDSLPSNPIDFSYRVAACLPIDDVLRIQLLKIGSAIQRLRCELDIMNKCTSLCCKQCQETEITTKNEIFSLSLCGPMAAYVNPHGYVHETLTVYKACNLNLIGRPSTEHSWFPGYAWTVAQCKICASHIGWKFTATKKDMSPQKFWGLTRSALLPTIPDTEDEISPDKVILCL
Sequence (Q16531 whole entry partner, the tested form may be a part): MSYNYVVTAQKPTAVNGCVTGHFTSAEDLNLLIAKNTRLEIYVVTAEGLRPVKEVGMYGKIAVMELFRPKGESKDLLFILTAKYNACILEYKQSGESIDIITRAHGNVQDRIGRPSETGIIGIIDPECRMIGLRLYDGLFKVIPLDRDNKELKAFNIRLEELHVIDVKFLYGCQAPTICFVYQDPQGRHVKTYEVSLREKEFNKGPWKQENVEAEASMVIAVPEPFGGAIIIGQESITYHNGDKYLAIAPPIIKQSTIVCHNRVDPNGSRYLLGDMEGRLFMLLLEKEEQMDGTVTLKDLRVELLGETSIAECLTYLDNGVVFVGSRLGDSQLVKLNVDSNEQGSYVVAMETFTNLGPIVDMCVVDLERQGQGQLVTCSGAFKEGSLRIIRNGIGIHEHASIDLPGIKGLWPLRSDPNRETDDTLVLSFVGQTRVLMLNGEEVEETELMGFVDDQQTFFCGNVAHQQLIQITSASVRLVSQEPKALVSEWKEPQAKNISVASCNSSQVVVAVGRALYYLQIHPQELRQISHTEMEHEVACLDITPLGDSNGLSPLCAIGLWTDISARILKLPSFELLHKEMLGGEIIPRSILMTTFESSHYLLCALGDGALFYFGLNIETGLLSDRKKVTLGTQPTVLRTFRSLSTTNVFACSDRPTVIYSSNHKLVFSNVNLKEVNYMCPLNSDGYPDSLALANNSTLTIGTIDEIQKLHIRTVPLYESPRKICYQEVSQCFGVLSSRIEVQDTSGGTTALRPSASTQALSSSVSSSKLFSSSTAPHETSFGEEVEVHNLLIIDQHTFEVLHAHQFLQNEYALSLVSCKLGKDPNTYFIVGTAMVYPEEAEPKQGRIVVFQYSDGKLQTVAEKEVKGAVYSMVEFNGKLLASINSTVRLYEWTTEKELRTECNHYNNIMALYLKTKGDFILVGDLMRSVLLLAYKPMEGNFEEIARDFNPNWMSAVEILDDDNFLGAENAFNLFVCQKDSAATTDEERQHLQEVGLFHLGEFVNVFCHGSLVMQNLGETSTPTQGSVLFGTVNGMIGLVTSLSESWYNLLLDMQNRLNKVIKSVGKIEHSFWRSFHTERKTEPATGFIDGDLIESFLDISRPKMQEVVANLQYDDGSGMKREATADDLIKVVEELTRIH
Protocol: The Prolabel system from DiscoverX was used to develop high-throughput and quantitative assays to measure changes in IKZF1 and IKZF2 protein levels in response to compounds. The prolabel tag was derived from the alpha fragment of beta galactosidase and has the following protein sequence: mssnslavvlqrrdwenpgvtglnrlaahppfaswrnseeartdrpsqqlrsinge. The complementary fragment of beta-galactosidase (from DiscoverX), is added to the prolabel tag to form an active beta galactosidase enzyme whose activity can be precisely measured. In this way, the levels of a fusion protein with the prolabel tag can be quantified in cell lysates.
Lentiviral vectors, based on the Invitrogen pLenti6.2/V5 DEST backbone, were constructed that placed the prolabel tag upstream of IKZF1, IKZF2 or GSPT1 and expressed the fusion protein from a CMV promoter.
To ensure moderate and consistent expression of the prolabel fusion proteins across all cells in the population, stable cell lines were constructed from cells expressing a single copy of the construct. Lentivirus packaged with the constructs was made using the Virapower kit from Invitrogen.
The levels of prolabel tagged fusion proteins in compound treated cell lines were measured as follows: Day 1, Cells were diluted to 1.0×10^6 cells/ml in normal growth medium. 17.5 μL of cells were plated in each well of a solid white 384 well plate. Plates were incubated overnight in a 37° C. tissue culture incubator.
Day 2, Serial dilutions of compounds were made in 384 well plates from 10 mM stocks. 15 μL of DMSO was added to each well of a 384 well plate. In the first column, 15 μL of stock compound was added. The solution was mixed and 15 μL was transferred to the next column. This was repeated until 20 two-fold dilutions were prepared. 2.5 μL of diluted compounds were transferred into 60 μL of cell culture medium in another 384 well plate, and mixed well. 2.5 μL of this mixture was added to the plated cells. The final DMSO concentration was 0.5% and the highest concentration of compound was 50 μM. Plates were incubated overnight (e.g., about 14 h, 18 h, or 24 h) in a 37° C. tissue culture incubator.
Day 3, Plates were removed from the incubator and allowed to equilibrate at rt for 30 minutes. Prolabel substrate (DiscoverX PathHunter Prolabel Detection Kit, User manual: 93-0180) was added as described by the manufacturers protocols. Plates were incubated at rt for three hours and luminescence was read using an Envision reader (Perkin Elmer) Data was analyzed and visualized using the Spotfire software package.

| Compound | IKZF2 % protein reduction at 10 μM, 24 h | IKZF2 % protein reduction at 30 uM |
| --- | --- | --- |
| O=C1CCC(N2Cc3cc(C4CCN(Cc5ccc(=O)[nH]c5)CC4)ccc3C2=O)C(=O)N1 (centres unmarked) [Compound I-1, 3-(1-oxo-5-(1-((6-oxo-1,6-dihydropyridin-3-yl)methyl)piperidin-4-yl)isoindolin-2-yl)piperidine-2,6-dione] | 70% |  |
| CC1CC(c2ccc3c(c2)CN(C2CCC(=O)NC2=O)C3=O)CC(C)N1Cc1ccccc1 (centres unmarked) [Compound I-2, 3-(5-(1-benzyl-2,6-dimethylpiperidin-4-yl)-1-oxoisoindolin-2-yl)piperidine-2,6-dione] |  | 35% at |

same assay, conditions: 10 μM, 24 h, 293GT cells

| IKZF2 % protein reduction at 10 μM, 24 h | Compound |
| --- | --- |
| 62% | CCC(c1cnn(CC)c1)N1CCC(c2ccc3c(c2)CN(C2CCC(=O)NC2=O)C3=O)CC1 (centres unmarked) [Compound I-32, 3-(5-(1-(1-(1-ethyl-1H-pyrazol-4-yl)propyl)piperidin-4-yl)-1-oxoisoindolin-2-yl)piperidine-2,6-dione] |
| 50% | COc1ccc(CN2CCC(c3ccc4c(c3)CN(C3CCC(=O)NC3=O)C4=O)CC2)nc1 (centres unmarked) [Compound I-6, 3-(5-(1-((5-methoxypyridin-2-yl)methyl)piperidin-4-yl)-1-oxoisoindolin-2-yl)piperidine-2,6-dione] |
| 75% | O=C1CCC(N2Cc3cc(C4CCN(CC5CCC(CF)CC5)CC4)ccc3C2=O)C(=O)N1 (centres unmarked) [Compound I-10, 3-(5-(1-((4-(fluoromethyl)cyclohexyl)methyl)piperidin-4-yl)-1-oxoisoindolin-2-yl)piperidine-2,6-dione] |
| 70% | CCOc1ccc(CN2CCC(c3ccc4c(c3)CN(C3CCC(=O)NC3=O)C4=O)CC2)cn1 (centres unmarked) [Compound I-8, 3-(5-(1-((6-ethoxypyridin-3-yl)methyl)piperidin-4-yl)-1-oxoisoindolin-2-yl)piperidine-2,6-dione] |
| 60% | CCOc1ccc(CN2CCC(c3ccc4c(c3)CN(C3CCC(=O)NC3=O)C4=O)CC2)nc1 (centres unmarked) [Compound I-5, 3-(5-(1-((5-ethoxypyridin-2-yl)methyl)piperidin-4-yl)-1-oxoisoindolin-2-yl)piperidine-2,6-dione] |
| 40% | O=C1CCC(N2Cc3cc(C4CCN(Cc5ccnnc5)CC4)ccc3C2=O)C(=O)N1 (centres unmarked) [Compound I-18, 3-(1-oxo-5-(1-(pyridazin-4-ylmethyl)piperidin-4-yl)isoindolin-2-yl)piperidine-2,6-dione] |
| 80% | CC1=CCC(CN2CCC(c3ccc4c(c3)CN(C3CCC(=O)NC3=O)C4=O)CC2)CC1 (centres unmarked) [Compound I-13, 3-(5-(1-((4-methylcyclohex-3-en-1-yl)methyl)piperidin-4-yl)-1-oxoisoindolin-2-yl)piperidine-2,6-dione] |
| 50% | O=C1CCC(N2Cc3cc(C4CCN(Cc5ccncn5)CC4)ccc3C2=O)C(=O)N1 (centres unmarked) [Compound I-16, 3-(1-oxo-5-(1-(pyrimidin-4-ylmethyl)piperidin-4-yl)isoindolin-2-yl)piperidine-2,6-dione] |
| 80% | O=C1CCC(N2Cc3cc(C4CCN(C5CCc6ncccc65)CC4)ccc3C2=O)C(=O)N1 (centres unmarked) [Compound I-35, 3-(5-(1-(6,7-dihydro-5H-cyclopenta[b]pyridin-5-yl)piperidin-4-yl)-1-oxoisoindolin-2-yl)piperidine-2,6-dione] |
| 50% | Cc1ncc(CN2CCC(c3ccc4c(c3)CN(C3CCC(=O)NC3=O)C4=O)CC2)cn1 (centres unmarked) [Compound I-17, 3-(5-(1-((2-methylpyrimidin-5-yl)methyl)piperidin-4-yl)-1-oxoisoindolin-2-yl)piperidine-2,6-dione] |
| 60% | O=C1CCC(N2Cc3cc(C4CCN(CCn5cccn5)CC4)ccc3C2=O)C(=O)N1 (centres unmarked) [Compound I-11, 3-(5-(1-(2-(1H-pyrazol-1-yl)ethyl)piperidin-4-yl)-1-oxoisoindolin-2-yl)piperidine-2,6-dione] |
| 80% | COc1ccc(CN2CCC(c3ccc4c(c3)CN(C3CCC(=O)NC3=O)C4=O)CC2)cn1 (centres unmarked) [Compound I-7, 3-(5-(1-((6-methoxypyridin-3-yl)methyl)piperidin-4-yl)-1-oxoisoindolin-2-yl)piperidine-2,6-dione] |
| 55% | O=C1CCC(N2Cc3cc(C4CCN(Cc5cnccn5)CC4)ccc3C2=O)C(=O)N1 (centres unmarked) [Compound I-14, 3-(1-oxo-5-(1-(pyrazin-2-ylmethyl)piperidin-4-yl)isoindolin-2-yl)piperidine-2,6-dione] |
| 62% | CCC(c1cnccn1)N1CCC(c2ccc3c(c2)CN(C2CCC(=O)NC2=O)C3=O)CC1 (centres unmarked) [Compound I-33, 3-(1-oxo-5-(1-(1-(pyrazin-2-yl)propyl)piperidin-4-yl)isoindolin-2-yl)piperidine-2,6-dione] |
| 60% | N#C[C@H]1CC[C@H](CN2CCC(c3ccc4c(c3)CN(C3CCC(=O)NC3=O)C4=O)CC2)CC1 (some centres unmarked) [Compound I-3, (1r,4r)-4-((4-(2-(2,6-dioxopiperidin-3-yl)-1-oxoisoindolin-5-yl)piperidin-1-yl)methyl)cyclohexane-1-carbonitrile] |
| 70% | CCn1cc(C(C)N2CCC(c3ccc4c(c3)CN(C3CCC(=O)NC3=O)C4=O)CC2)cn1 (centres unmarked) [Compound I-31, 3-(5-(1-(1-(1-ethyl-1H-pyrazol-4-yl)ethyl)piperidin-4-yl)-1-oxoisoindolin-2-yl)piperidine-2,6-dione] |
| 74% | COC1CCC(N2CCC(c3ccc4c(c3)CN(C3CCC(=O)NC3=O)C4=O)CC2)CC1 (centres unmarked) [Compound I-36, 3-(5-(1-(4-methoxycyclohexyl)piperidin-4-yl)-1-oxoisoindolin-2-yl)piperidine-2,6-dione] |
| 40% | O=C1CCC(N2Cc3cc(C4CCN(Cc5cccnn5)CC4)ccc3C2=O)C(=O)N1 (centres unmarked) [Compound I-15, 3-(1-oxo-5-(1-(pyridazin-3-ylmethyl)piperidin-4-yl)isoindolin-2-yl)piperidine-2,6-dione] |
| 80% | CC(C1CCOCC1)N1CCC(c2ccc3c(c2)CN(C2CCC(=O)NC2=O)C3=O)CC1 (centres unmarked) [Compound I-30, 3-(1-oxo-5-(1-(1-(tetrahydro-2H-pyran-4-yl)ethyl)piperidin-4-yl)isoindolin-2-yl)piperidine-2,6-dione] |

— patent US20250289802A1, “3-(1-OXO-5-(PIPERIDIN-4-YL)ISOINDOLIN-2-YL)PIPERIDINE-2,6-DIONE DERIVATIVES AND USES THEREOF” (NOVARTIS AG, priority 2019, published 2025)
